Data as given in US20080292619A1, “Pharmaceutical Composition Containing Meltrin Antagonist” (MOCHIDA PHARMACEUTICAL CO., LTD., priority 2004, published 2008).
In the oligonucleotide strings, read from the 5' end, every base follows the letter of its sugar. An asterisk marks phosphorothioate; unmarked linkages are phosphodiester. Other units and linkages are bracketed, terminal groups are in braces. A string of capitals states the bases alone. d = 2'-deoxy (DNA)

What follows are substances tested on human meltrin α RNA (assay: Suppression of human meltrin α expression by antisense compound in RD cell (real time PCR)). Settings: 50 nM; RD cell; corrected by GAPDH.
Format: cell-based
How it was run: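 RD cells transfected with heat-denatured antisense oligodeoxynucleotide plus Lipofectin in Opti-MEM for 4 h at 37° C, then cultured 18 h. Meltrin α RNA quantified by TaqMan RT-PCR against plasmid standard curve, GAPDH-corrected; suppression vs untreated cells, rated +/++/+++ for ≥30/50/70%.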

Row | Substance | suppression rate of expression, 50 nM
1 | H149: caggtctgaggggtgccagg (dC*dA*dG*dG*dT*dC*dT*dG*dA*dG*dG*dG*dG*dT*dG*dC*dC*dA*dG*dG; antisense) | + (“+” when the suppression rate was at least 30%)
2 | H150 + 5: ggcacttggtgtggatattg (dG*dG*dC*dA*dC*dT*dT*dG*dG*dT*dG*dT*dG*dG*dA*dT*dA*dT*dT*dG; antisense) | + (“+” when the suppression rate was at least 30%)
3 | H150 + 10: atctgggcacttggtgtgga (dA*dT*dC*dT*dG*dG*dG*dC*dA*dC*dT*dT*dG*dG*dT*dG*dT*dG*dG*dA; antisense) | ++ (“++” when the suppression rate was at least 50%)
4 | H150 + 15: ggtggatctgggcacttggt (dG*dG*dT*dG*dG*dA*dT*dC*dT*dG*dG*dG*dC*dA*dC*dT*dT*dG*dG*dT; antisense) | + (“+” when the suppression rate was at least 30%)
5 | H150: ttggtgtggatattgtggag (dT*dT*dG*dG*dT*dG*dT*dG*dG*dA*dT*dA*dT*dT*dG*dT*dG*dG*dA*dG; antisense) | + (“+” when the suppression rate was at least 30%)
6 | H172: gcacagctgggggtagttgg (dG*dC*dA*dC*dA*dG*dC*dT*dG*dG*dG*dG*dG*dT*dA*dG*dT*dT*dG*dG; antisense) | + (“+” when the suppression rate was at least 30%)
7 | H173: agctgcatctggtaccataa (dA*dG*dC*dT*dG*dC*dA*dT*dC*dT*dG*dG*dT*dA*dC*dC*dA*dT*dA*dA; antisense) | ++ (“++” when the suppression rate was at least 50%)
8 | H196: agggaggtggcggtttgcag (dA*dG*dG*dG*dA*dG*dG*dT*dG*dG*dC*dG*dG*dT*dT*dT*dG*dC*dA*dG; antisense) | + (“+” when the suppression rate was at least 30%)
9 | H219: ttcaaggggatgctgcccaa (dT*dT*dC*dA*dA*dG*dG*dG*dG*dA*dT*dG*dC*dT*dG*dC*dC*dC*dA*dA; antisense) | + (“+” when the suppression rate was at least 30%)

Same assay, conditions: 200 nM; RD cell; corrected by GAPDH

Row | Substance | suppression rate of expression, 200 nM
10 | H149: caggtctgaggggtgccagg (dC*dA*dG*dG*dT*dC*dT*dG*dA*dG*dG*dG*dG*dT*dG*dC*dC*dA*dG*dG; antisense) | +++ (“+++” when the suppression rate was at least 70%)
11 | H150: ttggtgtggatattgtggag (dT*dT*dG*dG*dT*dG*dT*dG*dG*dA*dT*dA*dT*dT*dG*dT*dG*dG*dA*dG; antisense) | +++ (“+++” when the suppression rate was at least 70%)
12 | H152: cttctcacttaatataggcg (dC*dT*dT*dC*dT*dC*dA*dC*dT*dT*dA*dA*dT*dA*dT*dA*dG*dG*dC*dG; antisense) | + (“+” when the suppression rate was at least 30%)
13 | H153: ctgttgaaaaaaggtgtcgg (dC*dT*dG*dT*dT*dG*dA*dA*dA*dA*dA*dA*dG*dG*dT*dG*dT*dC*dG*dG; antisense) | ++ (“++” when the suppression rate was at least 50%)
14 | H155: tccaactggagctgaaagat (dT*dC*dC*dA*dA*dC*dT*dG*dG*dA*dG*dC*dT*dG*dA*dA*dA*dG*dA*dT; antisense) | ++ (“++” when the suppression rate was at least 50%)
15 | H156: taaaagttggtacaaaaaac (dT*dA*dA*dA*dA*dG*dT*dT*dG*dG*dT*dA*dC*dA*dA*dA*dA*dA*dA*dC; antisense) | + (“+” when the suppression rate was at least 30%)
16 | H159: actgacggcagtagctcaaa (dA*dC*dT*dG*dA*dC*dG*dG*dC*dA*dG*dT*dA*dG*dC*dT*dC*dA*dA*dA; antisense) | ++ (“++” when the suppression rate was at least 50%)
17 | H160: gcaccatagcacagcacagc (dG*dC*dA*dC*dC*dA*dT*dA*dG*dC*dA*dC*dA*dG*dC*dA*dC*dA*dG*dC; antisense) | ++ (“++” when the suppression rate was at least 50%)
18 | H161: tacctgtgcaagtagacaga (dT*dA*dC*dC*dT*dG*dT*dG*dC*dA*dA*dG*dT*dA*dG*dA*dC*dA*dG*dA; antisense) | ++ (“++” when the suppression rate was at least 50%)
19 | H163: cactgtaatcaacattctgc (dC*dA*dC*dT*dG*dT*dA*dA*dT*dC*dA*dA*dC*dA*dT*dT*dC*dT*dG*dC; antisense) | + (“+” when the suppression rate was at least 30%)
20 | H164: atgcctactacagcgcactg (dA*dT*dG*dC*dC*dT*dA*dC*dT*dA*dC*dA*dG*dC*dG*dC*dA*dC*dT*dG; antisense) | ++ (“++” when the suppression rate was at least 50%)
21 | H165: aaaactcagtgatggtaaaa (dA*dA*dA*dA*dC*dT*dC*dA*dG*dT*dG*dA*dT*dG*dG*dT*dA*dA*dA*dA; antisense) | + (“+” when the suppression rate was at least 30%)
22 | H166: aacaagccttcctgccatgg (dA*dA*dC*dA*dA*dG*dC*dC*dT*dT*dC*dC*dT*dG*dC*dC*dA*dT*dG*dG; antisense) | ++ (“++” when the suppression rate was at least 50%)
23 | H168: caagcaggatatttcaagtt (dC*dA*dA*dG*dC*dA*dG*dG*dA*dT*dA*dT*dT*dT*dC*dA*dA*dG*dT*dT; antisense) | + (“+” when the suppression rate was at least 30%)
24 | H169: catcctgtccagaatcccat (dC*dA*dT*dC*dC*dT*dG*dT*dC*dC*dA*dG*dA*dA*dT*dC*dC*dC*dA*dT; antisense) | ++ (“++” when the suppression rate was at least 50%)
25 | H170: ccttgatcagaaagcaaaca (dC*dC*dT*dT*dG*dA*dT*dC*dA*dG*dA*dA*dA*dG*dC*dA*dA*dA*dC*dA; antisense) | + (“+” when the suppression rate was at least 30%)
26 | H171: gggactgctttccaataagg (dG*dG*dG*dA*dC*dT*dG*dC*dT*dT*dT*dC*dC*dA*dA*dT*dA*dA*dG*dG; antisense) | ++ (“++” when the suppression rate was at least 50%)
27 | H172: gcacagctgggggtagttgg (dG*dC*dA*dC*dA*dG*dC*dT*dG*dG*dG*dG*dG*dT*dA*dG*dT*dT*dG*dG; antisense) | +++ (“+++” when the suppression rate was at least 70%)
28 | H173: agctgcatctggtaccataa (dA*dG*dC*dT*dG*dC*dA*dT*dC*dT*dG*dG*dT*dA*dC*dC*dA*dT*dA*dA; antisense) | +++ (“+++” when the suppression rate was at least 70%)

Row | Substance | suppression rate of expression, 200 nM
29 | H176: ggctctggcctgagatgggg (dG*dG*dC*dT*dC*dT*dG*dG*dC*dC*dT*dG*dA*dG*dA*dT*dG*dG*dG*dG; antisense) | + (“+” when the suppression rate was at least 30%)
30 | H177: gcctggacctgaagcccctt (dG*dC*dC*dT*dG*dG*dA*dC*dC*dT*dG*dA*dA*dG*dC*dC*dC*dC*dT*dT; antisense) | +++ (“+++” when the suppression rate was at least 70%)
31 | H178: ctccctgaaagccaaacaca (dC*dT*dC*dC*dC*dT*dG*dA*dA*dA*dG*dC*dC*dA*dA*dA*dC*dA*dC*dA; antisense) | + (“+” when the suppression rate was at least 30%)
32 | H179: gttgtcaaggggcacagggc (dG*dT*dT*dG*dT*dC*dA*dA*dG*dG*dG*dG*dC*dA*dC*dA*dG*dG*dG*dC; antisense) | ++ (“++” when the suppression rate was at least 50%)
33 | H180: ccctgggagcctgcctgcca (dC*dC*dC*dT*dG*dG*dG*dA*dG*dC*dC*dT*dG*dC*dC*dT*dG*dC*dC*dA; antisense) | ++ (“++” when the suppression rate was at least 50%)
34 | H181: gccagatttctcccaggtgt (dG*dC*dC*dA*dG*dA*dT*dT*dT*dC*dT*dC*dC*dC*dA*dG*dG*dT*dG*dT; antisense) | ++ (“++” when the suppression rate was at least 50%)
35 | H182: ccaaagcttcctggccagaa (dC*dC*dA*dA*dA*dG*dC*dT*dT*dC*dC*dT*dG*dG*dC*dC*dA*dG*dA*dA; antisense) | ++ (“++” when the suppression rate was at least 50%)
36 | H183: gtctgcaacccaggttctca (dG*dT*dC*dT*dG*dC*dA*dA*dC*dC*dC*dA*dG*dG*dT*dT*dC*dT*dC*dA; antisense) | ++ (“++” when the suppression rate was at least 50%)
37 | H184: ggctacaccttaagattcct (dG*dG*dC*dT*dA*dC*dA*dC*dC*dT*dT*dA*dA*dG*dA*dT*dT*dC*dC*dT; antisense) | + (“+” when the suppression rate was at least 30%)
38 | H187: ggctggtcagctcagggtca (dG*dG*dC*dT*dG*dG*dT*dC*dA*dG*dC*dT*dC*dA*dG*dG*dG*dT*dC*dA; antisense) | +++ (“+++” when the suppression rate was at least 70%)
39 | H188: ccccttccaaacatgctcac (dC*dC*dC*dC*dT*dT*dC*dC*dA*dA*dA*dC*dA*dT*dG*dC*dT*dC*dA*dC; antisense) | + (“+” when the suppression rate was at least 30%)
40 | H189: gccttgagtgacactacaga (dG*dC*dC*dT*dT*dG*dA*dG*dT*dG*dA*dC*dA*dC*dT*dA*dC*dA*dG*dA; antisense) | + (“+” when the suppression rate was at least 30%)
41 | H195: tgcctgggcagtaggtttct (dT*dG*dC*dC*dT*dG*dG*dG*dC*dA*dG*dT*dA*dG*dG*dT*dT*dT*dC*dT; antisense) | ++ (“++” when the suppression rate was at least 50%)
42 | H196: agggaggtggcggtttgcag (dA*dG*dG*dG*dA*dG*dG*dT*dG*dG*dC*dG*dG*dT*dT*dT*dG*dC*dA*dG; antisense) | +++ (“+++” when the suppression rate was at least 70%)
43 | H197: tgctcagctccaagcagtat (dT*dG*dC*dT*dC*dA*dG*dC*dT*dC*dC*dA*dA*dG*dC*dA*dG*dT*dA*dT; antisense) | ++ (“++” when the suppression rate was at least 50%)
44 | H210: ccccatagagaaggttcttt (dC*dC*dC*dC*dA*dT*dA*dG*dA*dG*dA*dA*dG*dG*dT*dT*dC*dT*dT*dT; antisense) | ++ (“++” when the suppression rate was at least 50%)
45 | H217: ggaagttgataagcaagttg (dG*dG*dA*dA*dG*dT*dT*dG*dA*dT*dA*dA*dG*dC*dA*dA*dG*dT*dT*dG; antisense) | +++ (“+++” when the suppression rate was at least 70%)
46 | H219: ttcaaggggatgctgcccaa (dT*dT*dC*dA*dA*dG*dG*dG*dG*dA*dT*dG*dC*dT*dG*dC*dC*dC*dA*dA; antisense) | +++ (“+++” when the suppression rate was at least 70%)
47 | H221: gaaacatggctccctagtca (dG*dA*dA*dA*dC*dA*dT*dG*dG*dC*dT*dC*dC*dC*dT*dA*dG*dT*dC*dA; antisense) | + (“+” when the suppression rate was at least 30%)
